Laboratory results as given in ChEMBL document CHEMBL1201862, “PubChem BioAssay data set” (2004).
Values belong to the molecule of their own block, whether it stands above or below them. Calls of active or inactive are those of the source.

Assays:
Insulin-degrading enzyme [1] = molecular target: T1, Insulin-degrading enzyme (Homo sapiens, UniProt P14735); assay: recombinant IDE activation, cell-free – biochemical, fluorescence polarization, counter-screen for IDE activator project, dose response (AID 588681)
T1 sequence (P14735 whole entry): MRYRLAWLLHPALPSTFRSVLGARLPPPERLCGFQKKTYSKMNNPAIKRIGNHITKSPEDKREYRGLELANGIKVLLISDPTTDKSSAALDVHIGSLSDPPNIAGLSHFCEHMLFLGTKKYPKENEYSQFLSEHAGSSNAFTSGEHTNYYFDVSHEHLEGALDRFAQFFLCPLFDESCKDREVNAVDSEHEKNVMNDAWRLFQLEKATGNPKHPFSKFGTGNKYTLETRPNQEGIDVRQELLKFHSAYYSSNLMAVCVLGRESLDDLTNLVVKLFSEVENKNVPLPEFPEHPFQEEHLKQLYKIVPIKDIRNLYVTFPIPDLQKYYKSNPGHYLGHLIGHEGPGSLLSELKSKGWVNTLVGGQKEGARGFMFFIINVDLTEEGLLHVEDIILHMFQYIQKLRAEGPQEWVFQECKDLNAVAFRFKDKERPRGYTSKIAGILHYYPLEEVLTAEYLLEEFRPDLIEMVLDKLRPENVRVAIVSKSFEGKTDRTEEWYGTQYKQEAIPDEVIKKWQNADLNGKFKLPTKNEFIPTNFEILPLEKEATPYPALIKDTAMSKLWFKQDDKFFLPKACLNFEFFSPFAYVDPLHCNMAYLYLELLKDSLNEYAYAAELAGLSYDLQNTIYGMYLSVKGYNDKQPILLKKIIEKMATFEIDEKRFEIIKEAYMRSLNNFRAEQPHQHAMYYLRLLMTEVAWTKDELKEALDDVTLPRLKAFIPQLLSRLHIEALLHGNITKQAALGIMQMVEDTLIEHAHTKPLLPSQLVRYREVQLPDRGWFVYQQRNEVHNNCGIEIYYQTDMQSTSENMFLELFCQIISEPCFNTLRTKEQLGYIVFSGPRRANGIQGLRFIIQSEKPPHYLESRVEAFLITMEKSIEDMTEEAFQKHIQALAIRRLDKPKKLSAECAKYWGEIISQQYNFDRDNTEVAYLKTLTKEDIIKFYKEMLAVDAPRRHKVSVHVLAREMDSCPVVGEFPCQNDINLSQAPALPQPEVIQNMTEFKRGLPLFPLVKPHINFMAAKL

Insulin-degrading enzyme [2] = molecular target: T1, Insulin-degrading enzyme; assay: cellular IDE activation of Abeta substrate cleavage – fluorescence polarization, HEK cells, dose response (AID 588439); format: functional, cell-based
HEK293 [3] = assay: membrane integrity loss in HEK cells – cell-based, fluorescence, cytotoxicity control for IDE activator project, dose response (AID 588440); format: functional; conditions: Homo sapiens;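 also: cytotoxicity by LDH release measuring loss of membrane integrity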
HEK293 [4] = assay: optical interference in Abeta FP readout, dose response, artefact control for IDE activator project, biochemical, fluorescence polarization (AID 588442); format: functional, cell-based; conditions: Homo sapiens
Estrogen receptor beta = Estrogen receptor beta (Homo sapiens, UniProt Q92731);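 also: recombinant ER-beta bound to coactivator SRC1 peptide in presence of estradiol agonist; inhibitors block coactivator peptide binding and lower the FRET signal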
Estrogen receptor beta, sequence (Q92731 whole entry): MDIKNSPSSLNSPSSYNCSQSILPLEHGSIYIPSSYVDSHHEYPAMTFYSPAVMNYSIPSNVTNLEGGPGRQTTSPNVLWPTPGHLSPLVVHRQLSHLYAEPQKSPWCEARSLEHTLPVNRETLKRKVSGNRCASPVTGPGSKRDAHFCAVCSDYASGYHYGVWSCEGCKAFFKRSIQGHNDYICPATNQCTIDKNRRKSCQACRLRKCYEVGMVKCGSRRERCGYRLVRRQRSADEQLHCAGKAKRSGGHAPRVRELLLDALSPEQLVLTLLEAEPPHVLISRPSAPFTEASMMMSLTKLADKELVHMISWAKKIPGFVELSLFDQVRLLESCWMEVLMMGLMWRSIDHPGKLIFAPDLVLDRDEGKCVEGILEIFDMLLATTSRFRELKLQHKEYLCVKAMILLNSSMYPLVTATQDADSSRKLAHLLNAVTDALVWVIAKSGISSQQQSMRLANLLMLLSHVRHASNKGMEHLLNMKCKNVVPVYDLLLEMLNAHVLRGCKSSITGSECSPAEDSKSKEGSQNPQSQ

[5] = molecular target: T2, Heat shock factor protein 1 (Mus musculus, UniProt P38532); assay: enhancement of HSF1-driven luciferase signal – cell-based, NIH3T3, luminescence, dose retest, confirmation (AID 435004); format: functional;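 also: stress induced by proteasome inhibitor MG132 added 30 min after compound; luciferase reporter driven by HSF1 response element in NIH3T3 cells; actives raise luminescence as potentiators of the MG132 stress response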
T2 sequence (P38532 whole entry): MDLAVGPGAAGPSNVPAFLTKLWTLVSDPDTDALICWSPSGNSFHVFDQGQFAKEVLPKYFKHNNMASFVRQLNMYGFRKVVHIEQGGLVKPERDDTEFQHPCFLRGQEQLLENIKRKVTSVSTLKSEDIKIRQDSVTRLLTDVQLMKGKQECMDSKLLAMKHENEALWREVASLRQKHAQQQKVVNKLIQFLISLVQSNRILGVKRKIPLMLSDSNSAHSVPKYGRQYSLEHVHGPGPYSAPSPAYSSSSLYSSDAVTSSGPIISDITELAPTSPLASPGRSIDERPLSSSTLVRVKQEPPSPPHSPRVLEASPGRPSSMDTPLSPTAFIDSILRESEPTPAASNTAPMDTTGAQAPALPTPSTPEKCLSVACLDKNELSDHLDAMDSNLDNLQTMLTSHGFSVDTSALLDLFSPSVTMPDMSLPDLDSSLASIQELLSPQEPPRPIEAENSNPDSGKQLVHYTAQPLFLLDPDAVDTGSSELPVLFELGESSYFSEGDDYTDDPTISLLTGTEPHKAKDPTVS

INS1 = assay: INS-1E survival protection against cytokine death – cell-based, luminescence, retest, dose response (AID 449756); format: functional; conditions: Rattus norvegicus;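 also: cell death triggered by IL-1 beta plus TNF-alpha plus IFN-gamma mixture; protective hits raise ATP signal compared with cytokine alone wells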
[6] = molecular target: T3, Hepatocyte nuclear factor 4-alpha (Homo sapiens, UniProt P41235); format: functional, cell-based;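 also: biochemical luminescence-based dose-response counterscreen measuring inhibition of HNF4 dimerization, run alongside a screen for blockers of ABHD5–perilipin-5 interaction; split luciferase complementation of HNF4 fusion proteins in cell lysate measuring dimerization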
T3 sequence (P41235 whole entry): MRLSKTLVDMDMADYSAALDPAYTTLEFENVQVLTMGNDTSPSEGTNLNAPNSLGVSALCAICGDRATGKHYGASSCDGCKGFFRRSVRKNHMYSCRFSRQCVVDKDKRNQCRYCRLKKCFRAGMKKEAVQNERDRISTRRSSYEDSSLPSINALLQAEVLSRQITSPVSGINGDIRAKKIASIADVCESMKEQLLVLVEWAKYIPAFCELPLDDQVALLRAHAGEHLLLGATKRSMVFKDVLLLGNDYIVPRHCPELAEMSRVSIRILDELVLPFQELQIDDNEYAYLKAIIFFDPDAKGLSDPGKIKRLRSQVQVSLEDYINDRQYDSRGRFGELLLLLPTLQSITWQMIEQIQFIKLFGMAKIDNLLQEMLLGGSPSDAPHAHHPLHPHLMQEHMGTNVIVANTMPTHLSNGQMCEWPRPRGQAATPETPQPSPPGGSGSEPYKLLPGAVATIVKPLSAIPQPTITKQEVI

[7] = reduction of Shn3 3'UTR-driven luciferase in osteoblasts – cell-based, Clone20 osteoblasts, firefly luciferase, cherry-picked, dose response (AID 624132); format: functional;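 also: firefly luciferase luminescence from reporter carrying the Shn3 3'UTR in osteoblasts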
[8] = loss of viability in HepG2 cells – cell-based, CellTiter-Glo, cherry-picked, cytotoxicity control for Shn3 inhibitor project, dose response (AID 624134); format: functional
[9] = non-specific 3'UTR reporter inhibition in Clone20-Shn3RL – cell-based, Renilla luciferase, cherry-picked, counter-screen for Shn3 inhibitor project, dose response (AID 624133); format: functional
Melanocortin receptor 4 = Melanocortin receptor 4 (Homo sapiens, UniProt P32245); format: functional, cell-based;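 also: Cell-based assay with luminescence read-out, confirmatory dose-response testing for agonist activity of biased ligands at MC4R; human U2OS cells with tagged receptor and beta-arrestin; potency of agonists that increase receptor coupling to beta-arrestin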
Melanocortin receptor 4, sequence (P32245 whole entry): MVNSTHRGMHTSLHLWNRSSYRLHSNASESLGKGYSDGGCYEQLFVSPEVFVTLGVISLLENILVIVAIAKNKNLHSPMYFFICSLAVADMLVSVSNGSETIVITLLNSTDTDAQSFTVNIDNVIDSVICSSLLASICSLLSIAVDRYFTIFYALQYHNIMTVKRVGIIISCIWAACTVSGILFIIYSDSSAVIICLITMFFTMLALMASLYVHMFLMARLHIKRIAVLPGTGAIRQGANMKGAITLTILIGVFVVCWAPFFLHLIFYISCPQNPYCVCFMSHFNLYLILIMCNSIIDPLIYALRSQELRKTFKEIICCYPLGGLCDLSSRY

[10] = P. falciparum Dd2 growth inhibitors, dose response, SYBR Green, cherry-picked samples (AID 1159567); format: functional, cell-based
[11] = toxicity to human hepatoma HepG2 cells – cell-based, cherry-picked samples, cytotoxicity control, dose response (AID 1159577); format: functional

SMILES: COc1ccc(/C=C2\Oc3cc(OCC(=O)N4CCC(C(=O)O)CC4)ccc3C2=O)c(OC)c1OC
EC50 (Insulin-degrading enzyme [1]): 33 µM (inactive)
EC50 (Insulin-degrading enzyme [2]): 22 µM (inactive)
IC50 (HEK293 [3]): > 89.2 µM (inactive)
EC50 (HEK293 [4]): 24 µM (inactive)

IC50 (Estrogen receptor beta): > 50 µM (not active)
SMILES: COc1ccccc1NC(=O)NC(N)=O

SMILES: CC(=O)Oc1c(Cl)cc(N(C(C)=O)S(=O)(=O)c2ccccc2)c2ccccc12
EC50 [5]: > 260 µM (inactive)
AC50 (INS1): 4.34 µM (active)
IC50 [6]: 10.1 µM (inactive)

SMILES: O=C(NS(=O)(=O)Nc1ccccc1)C1=C(N2CCCC2)COC1=O
EC50 (Insulin-degrading enzyme [1]): > 54.7 µM (inactive)
EC50 (Insulin-degrading enzyme [2]): > 54.7 µM (inactive)
IC50 (HEK293 [3]): > 89.2 µM (inactive)
EC50 (HEK293 [4]): > 55.9 µM (inactive)

SMILES: CC1CN(S(=O)(=O)c2ccc(C(=O)Nc3nncs3)cc2)CC(C)O1 (configuration not stated)
EC50 (Insulin-degrading enzyme [1]): > 54.7 µM (inactive)
EC50 (Insulin-degrading enzyme [2]): > 54.7 µM (inactive)
IC50 (HEK293 [3]): > 89.2 µM (inactive)
EC50 (HEK293 [4]): > 54.7 µM (inactive)

SMILES: OC[C@@H]1CN(Cc2ccncc2)C[C@H](n2cnc3c(N4CCN(c5ccccc5)CC4)ncnc32)O1
AC50 [7]: 2.38 µM (active)
AC50 [8]: 3.81 µM (active)
AC50 [9]: 5.72 µM (active)

EC50 (Melanocortin receptor 4): > 89.2 µM (inactive)
SMILES: CCOC(=O)C(/C=N/c1ccc2c(c1)nnn2-c1ccc(Cl)cc1)=C(\O)OCC

SMILES: Cc1cccc(-c2ccc([C@@H]3[C@H](CO)N4CCCCN(S(=O)(=O)c5cccc(C)c5)C[C@@H]34)cc2)c1
AC50 [10]: 0.864 µM (active)
AC50 [11]: 8.89 µM (active)
